# Results reported in patent publication US7884105B2, “Squaric acid derivatives as inhibitors of histone deacetylase” (Janssen Pharmaceutica, N.V., priority 2005, dated 2011).
# Legend:
# [1] = molecular target: histone deacetylase (HeLa nuclear extracts); experiment: In vitro assay for inhibition of histone deacetylase (HDAC Fluorescent Activity Assay, Fluor de Lys); type: biochemical; design: key: pIC50 = negative log of IC50; conditions: HeLa nuclear extracts 60 μg/ml, 75 μM Fluor de Lys substrate, pH 7.4, 30 min
# Description: The in vitro assay for inhibition of histone deacetylase (see example C.1) measures the inhibition of HDAC enzymatic activity obtained with the compounds of formula (I).
# The HDAC Fluorescent Activity Assay/Drug Discovery Kit of Biomol (cat. No: AK-500-0001) was used. The HDAC Fluorescent Activity Assay is based on the Fluor de Lys (Fluorogenic Histone deAcetylase Lysyl) substrate and developer combination. The Fluor de Lys substrate, comprises an acetylated lysine side chain. Deacetylation of the substrate sensitizes the substrate so that, in the second step, treatment with the Fluor de Lys developer produces a fluorophore.
# HeLa nuclear extracts (supplier: Biomol) were incubated at 60 μg/ml with 75 μM of substrate. The Fluor de Lys substrate was added in a buffer containing 25 mM Tris, 137 mM NaCl, 2.7 mM KCl and 1 mM MgCl2.6H2O at pH 7.4. After 30 min, 1 volume of the developer was added. The fluorophore was excited with 355 nm light and the emitted light (450 nm) was be detected on a fluorometric plate reader.
# For each experiment, controls (containing HeLa nuclear extract and buffer), a blank incubation (containing buffer but no HeLa nuclear extract) and samples (containing compound dissolved in DMSO and further diluted in buffer and HeLa nuclear extract) were run in parallel. In first instance, compounds were tested at a concentration of 10^−5M. […] All sample were tested 4 times. In each test the blank value was subtracted from both the control and the sample values. The control sample represented 100% of substrate deactylation. For each sample the fluorescence was expressed as a percentage of the mean value of the controls. When appropriate IC50-values (concentration of the drug, needed to reduce the amount of metabolites to 50% of the control) were computed using probit analysis for graded data. Herein the effects of test compounds are expressed as pIC50 (the negative log value of the IC50-value) (see Table F-2).
# [2] = Kinetic solubility in aqueous media (nephelometry); type: physicochemical; conditions: aqueous buffer, kinetic from dmso stock; phosphate citrate buffer pH 7.4, dilution of 5 mM DMSO stock, turbidity by nephelometer; read-out: Solubility C.2. score
# Procedure: The solubility of a compound measures the ability of a compound to stay in solution. DMSO-stock solutions are diluted with a single aqueous buffer solvent in 3 consecutive steps. For every dilution turbidity is measured with a nephelometer. (see example C.2).
# In the first dilution step, 10 μl of a concentrated stock-solution of the active compound, solubilized in DMSO (5 mM), was added to 100 μl phosphate citrate buffer pH 7.4 and mixed. In the second dilution step, an aliquot (20 μl) of the first dilution step was further dispensed in 100 μl phosphate citrate buffer pH 7.4 and mixed. Finally, in the third dilution step, a sample (20 μl) of the second dilution step was further diluted in 100 μl phosphate citrate buffer pH 7.4 and mixed. All dilutions were performed in 96-well plates. Immediately after the last dilution step the turbidity of the three consecutive dilution steps were measured with a nephelometer. Dilution was done in triplicate for each compound to exclude occasional errors. Based on the turbidity measurements a ranking is performed into 3 classes. Compounds with high solubility obtained a score of 3 and for this compounds the first dilution is clear. Compounds with medium solubility obtained a score of 2. For these compounds the first dilution is unclear and the second dilution is clear. […]
SMILES,Enzymatic activity pIC50 C.1. [1],solubility [2]
O=C(NO)c1cnc(N2CCN(c3c(NCc4ccco4)c(=O)c3=O)CC2)nc1 [Compound 7],7.2,> 454 µM
CCN(CC)CCCNc1c(N2CCN(c3ncc(C(=O)NO)cn3)CC2)c(=O)c1=O [Compound 6],7.2,
O=C(NO)c1cnc(N2CCN(c3c(NCCCN4CCCC4=O)c(=O)c3=O)CC2)nc1 [Compound 15],6.8,
O=C(NO)c1cnc(N2CCN(c3c(NCCOc4cccc(Cl)c4)c(=O)c3=O)CC2)nc1 [Compound 5],7.4,
O=C(NO)c1cnc(N2CCN(c3c(NCCNc4ccccc4)c(=O)c3=O)CC2)nc1 [Compound 14],6.9,
O=C(NO)c1cnc(N2CCN(c3c(NCc4cccc(C(F)(F)F)c4)c(=O)c3=O)CC2)nc1 [Compound 12],7.2,> 454 µM
O=C(NO)c1cnc(N2CCN(c3c(Nc4cccc(-c5ccccc5)c4)c(=O)c3=O)CC2)nc1 [Compound 1],7.7,
O=C(NO)c1cnc(N2CCN(c3c(NCCOc4ccccc4)c(=O)c3=O)CC2)nc1 [Compound 16],7.3,
O=C(NO)c1cnc(N2CCN(c3c(NCC4CCN(Cc5ccccc5)C4)c(=O)c3=O)CC2)nc1 (stereo not drawn) [Compound 2],6.9,
O=C(NO)c1cnc(N2CCN(c3c(NC4CCCc5ccccc54)c(=O)c3=O)CC2)nc1 (stereo not drawn) [Compound 4],7.2,
O=C(NO)c1cnc(N2CCN(c3c(NCc4cccnc4)c(=O)c3=O)CC2)nc1 [Compound 9],7.0,
CCCCCNc1c(N2CCN(c3ncc(C(=O)NO)cn3)CC2)c(=O)c1=O [Compound 3],7.6,
O=C(NO)c1cnc(N2CCN(c3c(NCCc4ccccn4)c(=O)c3=O)CC2)nc1 [Compound 11],7.0,
O=C(NO)c1cnc(N2CCN(c3c(NCCc4ccccc4)c(=O)c3=O)CC2)nc1 [Compound 10],7.1,
COc1cc(CNc2c(N3CCN(c4ncc(C(=O)NO)cn4)CC3)c(=O)c2=O)cc(OC)c1OC [Compound 13],7.4,
O=C(NO)c1cnc(N2CCN(c3c(NCC4(c5ccc(Cl)cc5)CC4)c(=O)c3=O)CC2)nc1 [Compound 8],7.2,
